{"source": "patent US7910623B2", "about": "“Synthesis of scabronines and analogues thereof” (Sloan-Kettering Institute for Cancer Research, priority 2008, dated 2011)", "key": {"PC-12 cells": {"tested_on": "PC-12 cells", "assay": "Neurite outgrowth of PC-12 cells cultured in compound-conditioned 1321N1 medium", "format": "cell-based, rat", "conditions": "1321N1 medium conditioned with compound at 30 μM for 48 hours, PC-12 3 days; for neurite outgrowth of PC-12 cells: vs DMSO control", "protocol": "(§1) The 1321N1 human astrocytoma cells were cultured in Dulbecco's modified Eagles's medium (DMEM) supplemented with 2 mM L-Glutamine and 10% fetal bovine serum (FBS). PC-12 cells were grown in F-12K medium supplemented with 15% horse serum and 2.5% FBS. For compound treatment, 1321N1 cells were incubated with compounds 2 and 8 at 30 μM for 48 hours in DMEM medium. The resulting conditioned media from the 1321N1 cells were used to culture PC-12 cell for induction of PC-12 neurite outgrowth. After 3 days incubation, PC-12 cells were washed with phosphate-buffered saline (PBS) and fixed with 4% paraformaldeyde. Neurites were observed under a phase-contrast ECLIPSE TE2000-S Nikon microscope.\nThe differentiation of PC-12 cells was scored as follows: cells without neurites were scored 0; cells with neurites as long as one cell body diameter were scored 1; cells with neurites 2-3 times longer than their cell body diameter were scored 2; and cells with neurites that were extremely long or forming a network were scored 3. The mean of differentiation scores were obtained from 200 cells (4 wells) under the phase-contrast microscope. Data are expressed as means±S.E.M (standard error of mean). Values represent the Means±S.E.M. for four wells."}, "1321N1 human glial cells": {"tested_on": "1321N1 human glial cells", "assay": "Biosynthesis and secretion of neurotrophic factors from 1321N1 cells treated with compound", "format": "cell-based", "conditions": "30 μM, 48 hours", "protocol": "as §1"}, "[1]": {"tested_on": "rat pheochromocytoma cells (PC-12)", "conditions": "cited from earlier work"}, "[2]": {"tested_on": "1321N1 human astroglial cells", "conditions": "cited from earlier work"}}, "note": "“Also recorded” adds a separate entry of the source. Where two headings read alike, the source gives them in different places."}
{"molecule": "COC(=O)[C@]12CCC(C(C)C)=C1[C@H]1CCC(C=O)=CC(=O)[C@]1(C)CC2", "note": "[Compound 8]", "values": [{"measurement": "neurite outgrowth of PC-12 cells compared with compound 2 or purified NGF (50 ng/mL)", "setting": "PC-12 cells", "value": "greater activity as evidenced by increased neurite length; also recorded: comparable to those produced by direct exposure of PC-12 cells to purified NGF; also recorded: greater potency than compound 2"}, {"measurement": "neurite outgrowth of PC-12 cells", "setting": "PC-12 cells", "value": "significantly induced neurite outgrowth"}]}
{"molecule": "COC(=O)[C@]12CCC(C(C)C)=C1[C@H]1CC=C(C=O)CC(=O)[C@]1(C)CC2", "note": "[Compound 2, Scabronine G Methyl Ester]", "values": [{"measurement": "biosynthesis and secretion of neurotrophic factors", "setting": "1321N1 human glial cells", "value": "effectively enhanced the biosynthesis and secretion of neurotrophic factors"}, {"measurement": "neuronal differentiation of PC-12 cells", "setting": "[1]", "value": "dramatic neuronal differentiation"}, {"measurement": "neurite outgrowth of PC-12 cells compared with compound 2 or purified NGF (50 ng/mL)", "setting": "PC-12 cells", "value": "comparable to those produced by direct exposure of PC-12 cells to purified NGF; also recorded: same degree of neurite outgrowth as that of 50 ng/mL of NGF"}, {"measurement": "neurite outgrowth of PC-12 cells", "setting": "PC-12 cells", "value": "significant neurite outgrowth; also recorded: significantly induced neurite outgrowth"}]}
{"molecule": "CC(C)C1=C2[C@H]3CC=C(C=O)CC(=O)[C@]3(C)CC[C@@]2(C(=O)O)CC1", "note": "[Compound 1, Scabronine G]", "values": [{"measurement": "production and excretion of nerve growth factor (NGF)", "setting": "[2]", "value": "induce the production and excretion of nerve growth factor (NGF)"}, {"measurement": "production and excretion of nerve growth factor (NGF)", "setting": "[2]; listed as scabronine G", "value": "induces the production and excretion of nerve growth factor (NGF)"}, {"measurement": "neuronal differentiation of PC-12 cells", "setting": "[1]", "value": "dramatic neuronal differentiation"}]}
